In patent publication US20240301319A1, “PERFUMING COMPOSITIONS” (FIRMNICH SA, priority 2017, published 2024):
Structures can show the parent of a compound that is named as a salt.

Assays:
[1] = Odor threshold and odor value of perfuming compounds (Tables 4 to 10)
[2] = Volatility of perfuming compounds (Tables 4 to 10), with top/middle/bottom note type; format: physicochemical
How it was run: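 Volatility is expressed in μg/l in air. Top notes are 70,000 to 100 μg/l, middle notes 99 to 50 μg/l, and bottom notes 49 to 0.1 μg/l. Compounds are grouped by olfactive family: watery, green, fruity, citrus, sweet, gourmand and woody.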

[3] = perfuming compounds having a green note
[4] = note type (Top/Middle/Bottom) by volatility, perfuming compounds having a green note
[5] = Table 6, perfuming compounds having a fruity note
[6] = Table 6, perfuming compounds having a fruity note, note type by volatility
[7] = Table 7, citrus note, top, middle or bottom note
[8] = Table 7, citrus note, equals volatility divided by odor threshold
[9] = Table 8, perfuming compounds having a sweet note
[10] = Table 8, perfuming compounds having a sweet note, note type by volatility
[11] = Table 4, watery note, equals volatility divided by odor threshold
[12] = Table 4, watery note, top, middle or bottom note
[13] = Table 9, perfuming compounds having a gourmand note, note type by volatility

SMILES: CC1=C[C@H]2C[C@H](C(C)C)[C@@H]1[C@@H](C1OCCO1)C2 (racemic)
- Odor Threshold (μg/l air) [1, 3]: 1.51E−01 μg/l air
- Type [2, 4]: Bottom
- Volatility (μg/l air) [2, 3]: 11.75 μg/l air

SMILES: CC(=O)OC(C)CC(C)(C)c1ccccc1 (racemic) [(+−)-1,3-DIMETHYL-3-PHENYLBUTYL ACETATE]
- Odor Threshold [1, 5]: 1.06E−02 μg/l air
- Odor Value [1, 5]: 4.77E+03
- Odor Threshold (μg/l air) [1, 3]: 1.06E−02 μg/l air
- Volatility [2, 5]: 50.65 μg/l air
- Type [2, 6]: Middle
- Type [2, 4]: Middle
- Volatility (μg/l air) [2, 3]: 50.65 μg/l air

SMILES: C=CC(C)(CCC=C(C)C)OC(C)=O (racemic) [(+−)-1,5-DIMETHYL-1-VINYL-4-HEXENYL ACETATE]
- Odor Threshold (μg/l air) ([1]; Table 7, citrus note): 7.40E−02 μg/l air
- Odor Threshold (μg/l air) [1, 3]: 7.40E−02 μg/l air
- Type [2, 6]: TOP (perfuming compounds having a volatility ranging from 70,000 to 100 μg/l in air are referred to as “top notes”)
- Type [2, 7]: Top
- Type [2, 4]: Top
- Volatility (μg/l air) [2, 3]: 339.21 μg/l air

SMILES: CCCC(S)CCOC (racemic) [(+−)-1-METHOXY-3-HEXANETHIOL]
- Odor Threshold (μg/l air) [1, 3]: 1.92E−07 μg/l air
- Type [2, 4]: Top
- Volatility (μg/l air) [2, 3]: 2534.77 μg/l air

SMILES: CC(=O)OC(C)c1ccccc1 (racemic) [(+−)-1-PHENYLETHYL ACETATE]
- Odor Threshold (μg/l air) ([1]; Table 7, citrus note): 4.43E−02 μg/l air
- Odor Value [1, 8]: 8.75E+03
- Volatility [2, 5]: 387.96 μg/l air
- Type [2, 6]: TOP (perfuming compounds having a volatility ranging from 70,000 to 100 μg/l in air are referred to as “top notes”)
- Volatility (μg/l air) ([2]; Table 7, citrus note): 387.96 μg/l air
- Type [2, 7]: Top

SMILES: C=CC(O)CCCCC (racemic) [(+−)-1-octen-3-ol]
- Odor Threshold (μg/l air) [1, 3]: 1.77E−03 μg/l air
- Type [2, 4]: Top
- Volatility (μg/l air) [2, 3]: 3030.11 μg/l air

SMILES: CC(=O)OC(c1ccccc1)C(Cl)(Cl)Cl (racemic) [(+−)-2,2,2-TRICHLORO-1-PHENYLETHYL ACETATE]
- Odor Threshold [1, 5]: 1.15E−03 μg/l air
- Odor Value [1, 5]: 1.04E+04
- Odor Threshold (μg/l air) ([1]; Table 7, citrus note): 1.15E−03 μg/l air
- Odor Value [1, 8]: 1.04E+04
- Volatility [2, 5]: 11.96 μg/l air
- Type [2, 6]: Bottom
- Volatility (μg/l air) ([2]; Table 7, citrus note): 11.96 μg/l air
- Type [2, 7]: Bottom

SMILES: CCCCCC1CCCC1O (racemic) [(+−)-2-PENTYL-1-CYCLOPENTANOL]
- Odor Threshold [1, 9]: 5.43E−03 μg/l air
- Odor Value [1, 9]: 1.80E+04
- Volatility [2, 9]: 97.79 μg/l air
- Type [2, 10]: Middle

SMILES: CC(C=O)Cc1ccc(C(C)(C)C)cc1 (racemic) [(+−)-2-methyl-3-[4-(2-methyl-2-propanyl)phenyl]propanal]
- Odor Threshold (μg/l air) ([1]; Table 4, watery note): 2.39E−04 μg/l air
- Odor Value [1, 11]: 5.38E+04
- Volatility (μg/l air) ([2]; Table 4, watery note): 12.86 μg/l air
- Type [2, 12]: bottom (perfuming compounds having a volatility ranging from 49 to 0.1 μg/l in air are referred to as “bottom notes”)

SMILES: CCCCCCCCC(C)C=O (racemic) [(+−)-2-methyldecanal″]
- Odor Threshold (μg/l air) ([1]; Table 4, watery note): 9.00E−04 μg/l air
- Odor Value [1, 11]: 3.31E+05
- Volatility (μg/l air) ([2]; Table 4, watery note): 297.74 μg/l air
- Type [2, 12]: TOP (perfuming compounds having a volatility ranging from 70,000 to 100 μg/l in air are referred to as “top notes”)

SMILES: CCCCCCCCCC(C)C=O (racemic) [(+−)-2-methylundecanal]
- Odor Threshold (μg/l air) ([1]; Table 4, watery note): 7.24E−05 μg/l air
- Odor Value [1, 11]: 1.04E+06
- Volatility (μg/l air) ([2]; Table 4, watery note): 75.55 μg/l air
- Type [2, 12]: middle (perfuming compounds having a volatility ranging from 99 to 50 μg/l in air are referred to as “middle notes”)

SMILES: CCCCCC1CCCC1=O (racemic) [(+−)-2-pentylcyclopentanone]
- Odor Threshold [1, 9]: 1.28E−03 μg/l air
- Odor Value [1, 9]: 4.38E+05
- Odor Threshold ([1]; Table 9, gourmand note): 1.28E−03 μg/l air
- Volatility [2, 5]: 560.22 μg/l air
- Type [2, 6]: TOP (perfuming compounds having a volatility ranging from 70,000 to 100 μg/l in air are referred to as “top notes”)
- Volatility [2, 9]: 560.22 μg/l air
- Type [2, 10]: Top
- Volatility ([2]; Table 9, gourmand note): 560.22 μg/l air
- Type [2, 13]: Top

SMILES: CC(CO)c1ccccc1 (racemic) [(+−)-2-phenyl-1-propanol]
- Odor Threshold (μg/l air) [1, 3]: 3.62E−02 μg/l air
- Type [2, 4]: Top
- Volatility (μg/l air) [2, 3]: 142.19 μg/l air

SMILES: CCCCCC(C#N)CCC (racemic) [(+−)-2-propylheptanenitrile]
- Odor Threshold (μg/l air) ([1]; Table 7, citrus note): 7.83E−02 μg/l air
- Odor Value [1, 8]: 5.61E+03
- Volatility [2, 5]: 439.00 μg/l air
- Type [2, 6]: TOP (perfuming compounds having a volatility ranging from 70,000 to 100 μg/l in air are referred to as “top notes”)
- Volatility (μg/l air) ([2]; Table 7, citrus note): 439.00 μg/l air
- Type [2, 7]: Top

SMILES: CC(CC=O)CC(C)(C)C (racemic) [(+−)-3,5,5-TRIMETHYLHEXANAL]
- Odor Threshold (μg/l air) [1, 3]: 9.37E−03 μg/l air
- Type [2, 4]: Top
- Volatility (μg/l air) [2, 3]: 12045.92 μg/l air

SMILES: CC(C)=CCCC(C)CCOC=O (racemic) [(+−)-3,7-DIMETHYL-6-OCTENYL FORMATE]
- Odor Threshold (μg/l air) [1, 3]: 1.72E−03 μg/l air
- Volatility [2, 5]: 262.84 μg/l air
- Type [2, 6]: TOP (perfuming compounds having a volatility ranging from 70,000 to 100 μg/l in air are referred to as “top notes”)
- Type [2, 4]: Top
- Volatility (μg/l air) [2, 3]: 262.84 μg/l air

SMILES: C=CC(C)(O)CCC=C(C)C (racemic) [(+−)-3,7-dimethyl-1,6-octadien-3-ol]
- Odor Threshold (μg/l air) ([1]; Table 7, citrus note): 8.89E−05 μg/l air
- Odor Value [1, 8]: 1.01E+07
- Volatility [2, 5]: 896.72 μg/l air
- Type [2, 6]: TOP (perfuming compounds having a volatility ranging from 70,000 to 100 μg/l in air are referred to as “top notes”)
- Volatility (μg/l air) ([2]; Table 7, citrus note): 896.72 μg/l air
- Type [2, 7]: Top

SMILES: CC(C=O)Cc1ccc2c(c1)OCO2 (racemic) [(+−)-3-(1,3-BENZODIOXOL-5-YL)-2-METHYLPROPANAL]
- Odor Threshold (μg/l air) ([1]; Table 4, watery note): 2.23E−04 μg/l air
- Odor Value [1, 11]: 1.60E+04
- Volatility (μg/l air) ([2]; Table 4, watery note): 3.57 μg/l air
- Type [2, 12]: bottom (perfuming compounds having a volatility ranging from 49 to 0.1 μg/l in air are referred to as “bottom notes”)

SMILES: CC(C)c1cccc(C(C)CC=O)c1 (racemic) [(+−)-3-(3-ISOPROPYL-1-PHENYL)BUTANAL]
- Odor Threshold (μg/l air) ([1]; Table 4, watery note): 7.71E−04 μg/l air
- Odor Value [1, 11]: 1.91E+04
- Odor Threshold (μg/l air) [1, 3]: 7.71E−04 μg/l air
- Volatility (μg/l air) ([2]; Table 4, watery note): 14.74 μg/l air
- Type [2, 12]: bottom (perfuming compounds having a volatility ranging from 49 to 0.1 μg/l in air are referred to as “bottom notes”)
- Type [2, 4]: Bottom
- Volatility (μg/l air) [2, 3]: 14.74 μg/l air

SMILES: CC(C=O)Cc1ccc(C(C)C)cc1 (racemic) [(+−)-3-(4-isopropylphenyl)-2-methylpropanal]
- Odor Threshold (μg/l air) ([1]; Table 4, watery note): 3.00E−03 μg/l air
- Odor Value [1, 11]: 8.28E+03
- Volatility (μg/l air) ([2]; Table 4, watery note): 24.85 μg/l air
- Type [2, 12]: bottom (perfuming compounds having a volatility ranging from 49 to 0.1 μg/l in air are referred to as “bottom notes”)

SMILES: COc1ccc(CC(C)C=O)cc1 (racemic) [(+−)-3-(4-methoxyphenyl)-2-methylpropanal]
- Odor Threshold (μg/l air) ([1]; Table 4, watery note): 9.79E−03 μg/l air
- Odor Value [1, 11]: 1.94E+03
- Odor Threshold (μg/l air) [1, 3]: 9.79E−03 μg/l air
- Volatility (μg/l air) ([2]; Table 4, watery note): 18.99 μg/l air
- Type [2, 12]: bottom (perfuming compounds having a volatility ranging from 49 to 0.1 μg/l in air are referred to as “bottom notes”)
- Type [2, 4]: Bottom
- Volatility (μg/l air) [2, 3]: 18.99 μg/l air

SMILES: CCCC(S)CCOC(C)=O (racemic) [(+−)-3-mercaptohexyl acetate]
- Odor Threshold (μg/l air) [1, 3]: 2.72E−06 μg/l air
- Volatility [2, 5]: 421.09 μg/l air
- Type [2, 6]: TOP (perfuming compounds having a volatility ranging from 70,000 to 100 μg/l in air are referred to as “top notes”)
- Type [2, 4]: Top
- Volatility (μg/l air) [2, 3]: 421.09 μg/l air

SMILES: CCCCCCC1CCC(=O)O1 (racemic) [(+−)-4-DECANOLIDE]
- Odor Threshold [1, 5]: 1.61E−04 μg/l air
- Odor Value [1, 5]: 6.51E+04
- Odor Threshold [1, 9]: 1.61E−04 μg/l air
- Odor Value [1, 9]: 6.51E+04
- Odor Threshold ([1]; Table 9, gourmand note): 1.61E−04 μg/l air
- Volatility [2, 5]: 10.49 μg/l air
- Type [2, 6]: Bottom
- Volatility [2, 9]: 10.49 μg/l air
- Type [2, 10]: Bottom
- Volatility ([2]; Table 9, gourmand note): 10.49 μg/l air
- Type [2, 13]: Bottom
